Measurements: patent US6083957A, “Heterocyclic compounds and their preparation and use” (Novo Nordisk A/S, priority 1996, dated 2000)

Experiments:
[1] = molecular target: muscarinic acetylcholine receptors; assay: inhibition of specific binding of 3H-Oxotremorine-M (3H-Oxo), rat cortex homogenate; design: species or system male Wistar rats; conditions: 1.0 nM 3H-Oxotremorine, pH 7.4, 30 min, 25° C
From the text: The pharmacological properties of the compounds of the invention can be illustrated by determining their capability to inhibit the specific binding of ^3 H-Oxotremorine-M (^3 H-Oxo). Birdsdall N. J. M., Hulme E. C., and Burgen A. S. V. (1980). "The Character of Muscarinic Receptors in Different Regions of the Rat Brain". Proc. Roy. Soc. London (Series B) 207,1.
The inhibitory effects of compounds on ^3 H-Oxo binding reflects the affinity for muscarinic acetylcholine receptors.
All preparations are performed at 0-4° C. unless otherwise indicated. Fresh cortex (0.1-1 g) from male Wistar rats (150-250 g) is homogenized for 5-10 s in 10 ml 20 mM Hepes pH: 7.4, with an Ultra-Turrax homogenizer. The homogenizer is rinsed with 10 ml of buffer and the combined suspension centrifuged for 15 min. at 40,000×g. The pellet is washed three times with buffer. In each step the pellet is homogenized as before in 2×10 ml of buffer and centrifuged for 10 min. at 40,000×g.
The final pellet is homogenized in 20 mM Hepes pH: 7.4 (100 ml per g of original tissue) and used for binding assay. Aliquots of 0.5 ml is added 25 ul of test solution and 25 ul of ^3 H-Oxotremorine (1.0 nM, final concentration) mixed and incubated for 30 min. at 25° C. Non-specific binding is determined in triplicate using arecoline (1 ug/ml, final concentration) as the test substance. After incubation samples are added 5 ml of ice-cold buffer and poured directly onto Whatman GF/C glass fiber filters under suction and immediately washed 2 times with 5 ml of ice-cold buffer. The amount of radioactivity on the filters are determined by conventional liquid scintillation counting. Specific binding is total binding minus non specific binding.
Test substances are dissolved in 10 ml water (if necessary heated on a steam-bath for less than 5 min.) at a concentration of 2.2 mg/ml. 25-75% inhibition of specific binding must be obtained before calculation of IC50.
The test value will be given as IC50 (the concentration (nM) of the test substance which inhibits the specific binding of ^3 H-Oxo by 50%).
(§1) IC50 =(applied test substance concentration) [formula] where Co is specific binding in control assays and Cx is the specific binding in the test assay. (The calculations assume normal mass-action kinetics).

[2] = molecular target: T1, subtype of muscarinic receptors (M1-site) (Rattus norvegicus, UniProt P08482); assay: inhibition of 3H-PRZ (pirenzepine, [N-methyl-3H]) binding to rat cerebral cortex membranes; design: species or system male Wistar rats; conditions: 1.0 nM 3H-Pirenzepine, pH 7.4, 60 min, 20° C, read-out: IC50, 3H-Pz
T1 construct: from tissue; host or cells: rat cerebral cortex membranes (male Wistar rats)
T1 sequence (P08482 1-460): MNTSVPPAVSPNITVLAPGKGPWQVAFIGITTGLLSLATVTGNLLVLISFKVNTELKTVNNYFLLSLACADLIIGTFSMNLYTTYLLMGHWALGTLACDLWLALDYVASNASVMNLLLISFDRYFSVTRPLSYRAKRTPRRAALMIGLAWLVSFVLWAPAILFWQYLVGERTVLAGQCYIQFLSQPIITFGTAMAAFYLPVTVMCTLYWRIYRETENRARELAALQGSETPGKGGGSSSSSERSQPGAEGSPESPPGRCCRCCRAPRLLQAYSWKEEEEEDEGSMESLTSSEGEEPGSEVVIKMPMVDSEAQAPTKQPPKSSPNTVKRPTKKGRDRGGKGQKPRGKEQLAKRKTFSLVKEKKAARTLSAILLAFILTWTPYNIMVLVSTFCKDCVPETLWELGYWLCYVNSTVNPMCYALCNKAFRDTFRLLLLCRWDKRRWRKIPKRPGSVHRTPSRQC
From the text: Furthermore the pharmacological properties of the compounds of the invention can also be illustrated by determining their capability to inhibit ^3 H-PRZ (pirenzepine, [N-methyl-^3 H]) binding to rat cerebral cortex membranes.
Pirenzepine binds selectively to subtype of muscarinic receptors. Historically the type is named the M1 -site, whereas pirenzepine sensitive site would be more appropriate. Although selective for M1 -sites pirenzepine also interact with M2 -sites.
All preparations are performed at 0-4° C. unless otherwise indicated. Fresh cortex (0.1-1 g) from male Wistar rats (150-200 g) is homogenized for 5-10 s. in 10 ml 20 mM Hepes pH: 7.4, with an Ultra-Turraxhomogenizer. The homogenizer is rinzed with 2×10 ml of buffer and the combined suspension centrifuged for 15 min at 40,000 xg. The pellet is washed three times with buffer. In each step the pellet is homogenized as before in 3×10 ml of buffer and centrifuged for 10 min at 40,000 xg.
The final pellet is homogenized in 20 mM Hepes pH: 7.4 (100 ml per g of original tissue) and used for binding assay. Aliquots of 0.5 ml is added 20 μl of test solution and 25 μl of ^3 H-Pirenzepine·(1.0 nM, final conc.), mixed and incubated for 60 min at 20° C. Non-specific binding is determined in triplicate using atropine (1 μg/ml, final conc.) as the test substance. After incubation samples are added 5 ml of ice-cold buffer and poured directly onto Whatman GF/C glass fiber filters inder suction and immediately washed 2 times with 5 ml of ice-cold buffer. The amount of radioactivity on the filters are determined by conventional liquid scintillation counting. Specific binding is total binding minus non-specific binding.
Test substances are dissolved in 10 ml water, at a concentration of 0.22 mg/ml. 25-75% inhibition of specific binding must be obtained before calculation of IC50.
The test value will be given as IC50 (the concentration, nM) of the test substance which inhibits the specific binding of ^3 H-PRZ by 50%.
as §1

Compound | IC50 [1] [nM] | IC50 [2] [nM]
CCOc1nsnc1C1=CCC[N+](C)(C)C1 [Compound 3, 3-(3-Ethoxy-1,2,5-thiadiazol-4-yl)-1,2,5,6-tetrahydro-1,1-dimethylpyridinium iodide] | 0.59 | 4.5
CCCCSc1nsnc1[C@H]1C[N@@+]2(C)CCC[C@@H]1C2 (relative stereo) [Compound 5, Endo 6-(3-Butylthio-1,2,5-thiadiazol-4-yl)-1-methyl-1-azabicyclo[3.2.1]octane iodide] | 3.3 | 8.8
CCCCSc1nsnc1C1C[N+]2(C)CCC1CC2 (centres unmarked) [Compound 4, 3-(3-Butylthio-1,2,5-thiadiazol-4-yl)-1-methyl-1-azabicyclo[2.2.2]octane iodide] | 1.5 | 4.9
CCCCCCOc1nsnc1C1=CCC[N+](C)(C)C1 [Compound 2, 3-(3-Hexyloxy-1,2,5-thiadiazol-4-yl)-1,2,5,6-tetrahydro-1,1-dimethylpyridinium iodide] | 3.3 | 9
CCCCCSc1nsnc1[C@H]1C[N@@+]2(C)CCC[C@@H]1C2 (relative stereo) [Compound 6, Endo 6-(3-Pentylthio-1,2,5-thiadiazol-4-yl)-1-methyl-1-azabicyclo[3.2.1]octane iodide] | 4.8 | 2.3
CCCCCCSc1nsnc1C1=CCC[N+](C)(C)C1 [Compound 1, 3-(3-Hexylthio-1,2,5-thiadiazol-4-yl)-1,2,5,6-tetrahydro-1,1-dimethylpyridinium iodide] | 3.4 | 6
CCCCCSc1nsnc1[C@@H]1C[N@@+]2(C)CCC[C@@H]1C2 (relative stereo) [Compound 7, Exo 6-(3-Pentylthio-1,2,5-thiadiazol-4-yl)-1-methyl-1-azabicyclo[3.2.1]octane iodide] | 4.9 | 135
CCSc1nsnc1C1=CCC[N+](C)(CC)C1 (centres unmarked) [Compound 8, 3-(3-Ethylthio-1,2,5-thiadiazol-4-yl)-1,2,5,6-tetrahydro-1-ethyl-1-methylpyridinium iodide] | 3.5 | 28

Other lines, results leading:

IC50 [1] [nM] | IC50 [2] [nM] | Compound
1.6 | 26 | CCSc1nsnc1C1=CCC[N+](C)(C)C1 [Compound 9, 3-(3-Ethylthio-1,2,5-thiadiazol-4-yl)-1,2,5,6-tetrahydro-1,1-dimethylpyridinium iodide]
15.5 | 56 | CCOc1nsnc1C1=CCC[N+](C)(CC)C1 (centres unmarked) [Compound 10, 3-(3-Ethoxy-1,2,5-thiadiazol-4-yl)-1,2,5,6-tetrahydro-1-ethyl-1-methyl-pyridinium iodide]
35 | – | C[N+]12CCCC(C1)C(c1nsnc1OCC#Cc1ccsc1)C2 (single isomer, unassigned) [Compound 11, Exo(+) 6-(3-(3-(3-Thienyl)-2-propyn-1-yloxy)-1,2,5-thiadiazol-4-yl)-1-azabicyclo[3.2.1]-octane iodide]
13 | – | C[N+]12CCCC(C1)C(c1nsnc1SCC#Cc1ccccc1)C2 (single isomer, unassigned) [Compound 13, Exo(+) 6-(3-(3-(3-Phenyl)-2-propyn-1-ylthio)-1,2,5-thiadiazol-4-yl)-1-azabicyclo[3.2.1]-octane iodide]
63 | – | C[N+]12CCCC(C1)C(c1nsnc1OCC#Cc1cccs1)C2 (single isomer, unassigned) [Compound 12, Exo(+) 6-(3-(3-(2-Thienyl)-2-propyn-1-yloxy)-1,2,5-thiadiazol-4-yl)-1-azabicyclo[3.2.1]-octane iodide]
